Measurements reported in patent US12404283B2, “c-MYC mRNA translation modulators and uses thereof in the treatment of cancer” (Anima Biotech Inc., priority 2022, dated 2025).
Numbered stars: 1 amine (or outer) side, 2 acyl side, 3 side chain; on linkers, the order of the positions; unused ones are H or OH. Bridge positions count the residues as written; N and C are the ends. Square brackets hold non-standard residues; d marks the D form. Peptide text beside a SMILES is read from it. I, II: the chains in the order shown. Actinocin(9to1) = Cc1c2oc3c(C)ccc(C(=O)[*:1])c3nc-2c(C(=O)[*:2])c(N)c1=O; NMeV = CN[C@H](C(=O)O)C(C)C; Sar = CNCC(=O)O

Legend:
c-Myc protein = c-Myc protein level in A549 cells; assay type: cell-based, human
Description: (§1) A549 cells were exposed to vehicle, general transcription inhibitor actinomycin D or anti-c-Myc compound.
(§2) In gray, cell nuclei stained with DAPI; in red, c-Myc protein; in purple, c-Myc mRNA; in yellow, c-Myc transcription sites.

c-Myc mRNA [1] = assay: Fluorescent in situ hybridization (FISH) assay for c-Myc mRNA; assay type: cell-based, human; details: A549 cells, 4 hours, FIG. 3 lower panel
Method: A549 cells were incubated with compounds for 24 hours (FIG. 3, upper panel) and c-Myc protein detected by immunofluorescence. In parallel, A549 cells were incubated with compounds for 4 hours and c-Myc mRNA was visualized by micrscopy using c-Myc mRNA specific fluorescent-tagged probes (FIG. 3, lower panel).
A549 cells were grown in 384-wells plates (Perkin Elmer, Cat. 6057300) for 48 hours, treated with compounds for 4 hours and then fixed for 20 min in 4% paraformaldehyde. Next day, permeabilization was done for 90 min at 4° C., using 70% ethanol. Then, the cells were incubated for 10 min with 10% formamide in 10% saline-sodium citrate. Fluorescently labeled custome DNA probes that target c-Myc (Cy3, BioSearch Technologies, Cat. SMF-1063-5) and GAPDH (Cy5, BioSearch Technologies, Cat. SMF-2019-1) mRNAs were hybridized overnight at 37° C. in a dark chamber in 10% formamide. The next day, cells were washed twice with 10% formamide for 30 min. […]
Following RNA FISH experiments, images of cells were taken with Operetta (Perkin Elmer, USA), a wide-field fluorescence microscope at ×63 magnification. […] In Columbus, cells were identified by their nucleus, using the “Find Nuceli” module, cytoplasm was detected based on the FISH-channel, and single mRNAs in the cytoplasm and transcription sites in the nucleus were detected using “Find Spots” module. […]

c-Myc = c-Myc immunofluorescence assay; assay type: cell-based, human; details: A549 cells
Method in brief: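 High-content imaging (20×) of PFA-fixed A549 cells immunostained for c-Myc with DAPI nuclei, after 24 h compound treatment at increasing concentrations. Per-cell c-Myc signal in identified cell regions was plotted against dose and fitted by logistic regression to give EC50.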

c-Myc mRNA [2] = assay: c-Myc mRNA level and transcription sites in A549 cells; assay type: cell-based, human
Description: as §1, §2

A549 xenografts [3] = assay: A549 xenograft model in nude mice; assay type: in vivo, NMRI nude female mice; details: 3 mg/kg i.p. twice a week for 49 days, FIG. 5
Method: NMRI nude female mice of 6-8 weeks of age were acclimated after shipping for >4 days. A549 cells, 5×10^6 in 100 ul Matrigel:PBS (50:50), were subcutaneously injected into flanks of mice. When the tumor size reached 80 to 200 mm^3, mice were grouped with similar average tumor size in each group, 10 animals per group. Compounds were dissolved in 10% DMSO, 10% Solutol, 80% water. Compounds were given i.p. for 49 days at 3 mg/kg twice a week. Caliper measurement of tumor size was done twice a week.
Error bars represent median±SEM, n=10 mice at each time point and analyzed by one-tailed T-TEST in Prism for *p<0.05.

A549 xenografts [4] = assay: A549 xenograft tumor growth in nude mice; assay type: in vivo; details: NMRI female nude mice, 3 mg/kg twice a week for 49 days, p<0.05
Method: Relative tumor volumes of A549 xenografts in NMRI female nude mice after treatment with compound 3 mg/kg twice a week for 49 days. Error bars represent median±SEM, n=10 mice at each time point and analyzed by one-tailed T-TEST in Prism for *p<0.05

Structure (SMILES) | c-Myc protein level (c-Myc protein) | c-Myc mRNA in the cytoplasm (c-Myc mRNA [1]) | c-Myc transcription site (spots inside the nucleus) (c-Myc mRNA [1]) | c-Myc protein detected by immunofluorescence (c-Myc; 24 hours, FIG. 3 upper panel) | c-Myc mRNA level (c-Myc mRNA [2]) | c-Myc transcription sites (c-Myc mRNA [2]) | c-Myc-dependent tumor growth (relative tumor volume) (A549 xenografts [3]) | Myc Efficacy (−LogEC50) (c-Myc; 24 hours treatment, anti-c-Myc immunofluorescence) | c-Myc-dependent tumor growth (relative tumor volumes) (A549 xenografts [4])
Cc1c2oc3c(C)ccc(C(=O)N[C@@H]4C(=O)N[C@H](C(C)C)C(=O)N5CCC[C@H]5C(=O)N(C)CC(=O)N(C)[C@@H](C(C)C)C(=O)O[C@@H]4C)c3nc-2c(C(=O)N[C@@H]2C(=O)N[C@H](C(C)C)C(=O)N3CCC[C@H]3C(=O)N(C)CC(=O)N(C)[C@@H](C(C)C)C(=O)O[C@@H]2C)c(N)c1=O [actinomycin D] (I: T[dV]P[Sar][NMeV] / II: T[dV]P[Sar][NMeV]; ester I:1-I:C, II:1-II:C; linker I:N-II:N via Actinocin(9to1)) | significant decrease | mRNA accumulation in the cytoplasm | inhibited transcription site | reduced c-Myc protein | complete reduction | complete reduction | – | – | –
NC1(c2ccc(-c3cn4c(n3)sc3cc(C(=O)NCCCN5CCCCC5)ccc34)cc2)CC1 [compound 332, 2-(4-(1-aminocyclopropyl)phenyl)-N-(3-(piperidin-1-yl)propyl)benzo[d]imidazo [2,1-b]thiazole-7-carboxamide] | – | – | – | – | – | – | inhibited c-Myc-dependent tumor growth in-vivo | +++ (+++ ≥6) | inhibited c-Myc-dependent tumor growth in-vivo
